{"source": "the supplement of paper PMC10307832", "assay_in_all_cases": "relative viability (nuclei count vs DMSO), 5 days (fraction); higher = more cells survive", "key": {"EMC-BAC-2": {"test_system": "EMC-BAC-2", "in_short": "(§1)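 For relative viability, nuclei counts in treated wells were divided by those in vehicle wells. Lung cancer cell lines had been pin-tool dosed in 1536-well plates the day after seeding and cultured for 5 days, then fixed and stained in one step (final 0.05% Triton X-100, 1% formaldehyde, 1 ug/ml Hoechst) and imaged at 4×. Doses were one drug alone or a fixed anchor-drug dose plus five library-drug doses (not always all listed) in √10 steps, and values are duplicate-plate medians.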"}, "HCC-366": {"test_system": "HCC-366", "in_short": "as §1"}, "HCC-78": {"test_system": "HCC-78", "in_short": "as §1"}, "LCLC-97TM1": {"test_system": "LCLC-97TM1", "in_short": "as §1"}, "NCI-H1395": {"test_system": "NCI-H1395", "in_short": "as §1"}, "NCI-H1648": {"test_system": "NCI-H1648", "in_short": "as §1"}}}
{"smiles": "Cc1csc(=NC2CCCCC2)n1/N=C/c1ccc(O)c(O)c1O", "note": "[MIM1] + Nc1nc2[nH]cc(CCc3ccc(C(=O)N[C@@H](CCC(=O)O)C(=O)O)cc3)c2c(=O)[nH]1 [Pemetrexed] (partner 0.2 µM)", "values": [{"measurement": "relative viability", "setting": "EMC-BAC-2; first compound 0.2 µM", "result": 0.421}, {"measurement": "relative viability", "setting": "EMC-BAC-2; first compound 0.6325 µM", "result": 0.436}, {"measurement": "relative viability", "setting": "EMC-BAC-2; first compound 2 µM", "result": 0.432}, {"measurement": "relative viability", "setting": "EMC-BAC-2; first compound 6.325 µM", "result": 0.448}, {"measurement": "relative viability", "setting": "EMC-BAC-2; first compound 20 µM", "result": 0.354}, {"measurement": "relative viability", "setting": "HCC-366; first compound 0.2 µM", "result": 0.161}, {"measurement": "relative viability", "setting": "HCC-366; first compound 2 µM", "result": 0.176}, {"measurement": "relative viability", "setting": "HCC-366; first compound 6.325 µM", "result": 0.152}, {"measurement": "relative viability", "setting": "HCC-366; first compound 20 µM", "result": 0.0413}, {"measurement": "relative viability", "setting": "HCC-78; first compound 0.2 µM", "result": 0.851}, {"measurement": "relative viability", "setting": "HCC-78; first compound 2 µM", "result": 0.927}, {"measurement": "relative viability", "setting": "HCC-78; first compound 6.325 µM", "result": 0.858}, {"measurement": "relative viability", "setting": "HCC-78; first compound 20 µM", "result": 0.919}, {"measurement": "relative viability", "setting": "LCLC-97TM1; first compound 0.2 µM", "result": 0.147}, {"measurement": "relative viability", "setting": "LCLC-97TM1; first compound 0.6325 µM", "result": 0.142}, {"measurement": "relative viability", "setting": "LCLC-97TM1; first compound 2 µM", "result": 0.167}, {"measurement": "relative viability", "setting": "LCLC-97TM1; first compound 6.325 µM", "result": 0.172}, {"measurement": "relative viability", "setting": "LCLC-97TM1; first compound 20 µM", "result": 0.054}, {"measurement": "relative viability", "setting": "NCI-H1395; first compound 0.2 µM", "result": 0.848}, {"measurement": "relative viability", "setting": "NCI-H1395; first compound 0.6325 µM", "result": 0.743}, {"measurement": "relative viability", "setting": "NCI-H1395; first compound 2 µM", "result": 0.8}, {"measurement": "relative viability", "setting": "NCI-H1395; first compound 6.325 µM", "result": 0.697}, {"measurement": "relative viability", "setting": "NCI-H1395; first compound 20 µM", "result": 0.341}, {"measurement": "relative viability", "setting": "NCI-H1648; first compound 0.2 µM", "result": 0.874}, {"measurement": "relative viability", "setting": "NCI-H1648; first compound 0.6325 µM", "result": 0.688}, {"measurement": "relative viability", "setting": "NCI-H1648; first compound 2 µM", "result": 0.584}, {"measurement": "relative viability", "setting": "NCI-H1648; first compound 6.325 µM", "result": 0.544}, {"measurement": "relative viability", "setting": "NCI-H1648; first compound 20 µM", "result": 0.455}]}
{"smiles": "Cc1cn(-c2cc(NC(=O)c3ccc(C)c(Nc4nccc(-c5cccnc5)n4)c3)cc(C(F)(F)F)c2)cn1", "note": "[Nilotinib] + CC(=O)Nc1cccc(-n2c(=O)n(C3CC3)c(=O)c3c(Nc4ccc(I)cc4F)n(C)c(=O)c(C)c32)c1 [Trametinib] (partner 0.02 µM)", "values": [{"measurement": "relative viability", "setting": "EMC-BAC-2; first compound 0.001 µM", "result": 0.874}, {"measurement": "relative viability", "setting": "EMC-BAC-2; first compound 0.003162 µM", "result": 0.697}, {"measurement": "relative viability", "setting": "EMC-BAC-2; first compound 0.01 µM", "result": 0.849}, {"measurement": "relative viability", "setting": "EMC-BAC-2; first compound 0.03162 µM", "result": 0.604}, {"measurement": "relative viability", "setting": "EMC-BAC-2; first compound 0.1 µM", "result": 0.65}, {"measurement": "relative viability", "setting": "HCC-366; first compound 0.001 µM", "result": 0.35}, {"measurement": "relative viability", "setting": "HCC-366; first compound 0.003162 µM", "result": 0.361}, {"measurement": "relative viability", "setting": "HCC-366; first compound 0.01 µM", "result": 0.327}, {"measurement": "relative viability", "setting": "HCC-366; first compound 0.03162 µM", "result": 0.243}, {"measurement": "relative viability", "setting": "HCC-366; first compound 0.1 µM", "result": 0.145}, {"measurement": "relative viability", "setting": "HCC-78; first compound 0.001 µM", "result": 0.754}, {"measurement": "relative viability", "setting": "HCC-78; first compound 0.003162 µM", "result": 0.597}, {"measurement": "relative viability", "setting": "HCC-78; first compound 0.01 µM", "result": 0.956}, {"measurement": "relative viability", "setting": "HCC-78; first compound 0.03162 µM", "result": 0.649}, {"measurement": "relative viability", "setting": "HCC-78; first compound 0.1 µM", "result": 0.863}, {"measurement": "relative viability", "setting": "LCLC-97TM1; first compound 0.001 µM", "result": 0.164}, {"measurement": "relative viability", "setting": "LCLC-97TM1; first compound 0.003162 µM", "result": 0.18}, {"measurement": "relative viability", "setting": "LCLC-97TM1; first compound 0.01 µM", "result": 0.152}, {"measurement": "relative viability", "setting": "LCLC-97TM1; first compound 0.03162 µM", "result": 0.114}, {"measurement": "relative viability", "setting": "LCLC-97TM1; first compound 0.1 µM", "result": 0.227}, {"measurement": "relative viability", "setting": "NCI-H1395; first compound 0.001 µM", "result": 0.988}, {"measurement": "relative viability", "setting": "NCI-H1395; first compound 0.01 µM", "result": 1.19}, {"measurement": "relative viability", "setting": "NCI-H1395; first compound 0.03162 µM", "result": 0.96}, {"measurement": "relative viability", "setting": "NCI-H1395; first compound 0.1 µM", "result": 0.9}, {"measurement": "relative viability", "setting": "NCI-H1648; first compound 0.001 µM", "result": 0.436}, {"measurement": "relative viability", "setting": "NCI-H1648; first compound 0.003162 µM", "result": 0.434}, {"measurement": "relative viability", "setting": "NCI-H1648; first compound 0.01 µM", "result": 0.44}, {"measurement": "relative viability", "setting": "NCI-H1648; first compound 0.03162 µM", "result": 0.331}, {"measurement": "relative viability", "setting": "NCI-H1648; first compound 0.1 µM", "result": 0.329}]}
